# Tests used:
# [1] = In vivo toxicity assay in tumor-bearing nude mice
# Ovcar443 = assay: Cell viability, Ovcar443 ovary cancer cells; format: cell-based
# Hey = assay: Cell viability, Hey ovary cancer cells; format: cell-based
structure (smiles),measurement,setting,value
"O=Cc1cn(Cc2ccc(Cl)cc2)c2ccccc12 [Oncrasin K001, 1H-Indole-3-carboxaldehyde, 1-[(4-chlorophenyl)methyl]-(9CI)]","serum ALT, AST, and creatinine levels",[1]; 2 days after the last treatment,within the normal range
same,histopathologic examination of organs,"[1]; lung, heart, stomach, small intestine, liver, spleen, pancreas, kidney",no significant lesions
same,blood cell counts,"[1]; red blood cells, white blood cells, platelets",all in the normal ranges
same,body weights,[1]; vs solvent,No difference
same,IC50 (−LogM),Ovcar443,4.5 −LogM
same,IC50 (−LogM),Hey,4.6 −LogM

# From US8883841B2, “Oncogenic ras-specific cytotoxic compound and methods of use thereof” (The Board of Regents of the University of Texas System, priority 2005, dated 2014)
